Experimental data taken from US5672715A, “Herbicidal substituted 3-aryl-pyrazoles” (Monsanto Company, priority 1995, dated 1997).

Legend:
Assay type in all cases: in vivo
[1] = test system: Barnyardgrass; assay: pre-emergence herbicide test; conditions: 0.25 lb/A; for inhibition at 280.212 g/ha: Echinochloa crus-galli, pre-emergence, read-out: % plant inhibition
In short: (§1)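 Steps: compact topsoil in pan; place seeds; level-fill with cover soil; add a known amount of compound before or after covering; keep pans in greenhouse, bottom-watering as needed; rate % inhibition at about 14 days.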

[2] = test system: Bedstraw Catchweed; assay: pre-emergence herbicide test; conditions: 0.25 lb/A; for inhibition at 280.212 g/ha: Galium aparine, pre-emergence, read-out: % plant inhibition
In short: as §1

[3] = test system: Birdseye Speedwell; assay: pre-emergence herbicide test; conditions: 0.25 lb/A; for inhibition at 280.212 g/ha: pre-emergence, read-out: % plant inhibition
In short: as §1

[4] = test system: Blackgrass; assay: pre-emergence herbicide test; conditions: 0.25 lb/A; for inhibition at 280.212 g/ha: Alopecurus myosuroides, pre-emergence, read-out: % plant inhibition
In short: as §1

[5] = test system: Cocklebur; assay: pre-emergence herbicide test; conditions: 0.25 lb/A; for inhibition at 280.212 g/ha: Xanthium strumarium, pre-emergence, read-out: % plant inhibition
In short: as §1

[6] = test system: Common Chickweed; assay: pre-emergence herbicide test; conditions: 0.25 lb/A; for inhibition at 280.212 g/ha: pre-emergence, read-out: % plant inhibition
In short: as §1

[7] = test system: Corn; assay: pre-emergence herbicide test; conditions: 0.25 lb/A; for inhibition at 280.212 g/ha: Zea mays, pre-emergence, read-out: % plant inhibition
In short: as §1

[8] = test system: Downy Brome; assay: pre-emergence herbicide test; conditions: 0.25 lb/A; for inhibition at 280.212 g/ha: Bromus tectorum, pre-emergence, read-out: % plant inhibition
In short: as §1

[9] = test system: Giant Foxtail; assay: pre-emergence herbicide test; conditions: 0.25 lb/A; for inhibition at 280.212 g/ha: Setaria faberi, pre-emergence, read-out: % plant inhibition
In short: as §1

[10] = test system: Green Foxtail; assay: pre-emergence herbicide test; conditions: 0.25 lb/A; for inhibition at 280.212 g/ha: Setaria viridis, pre-emergence, read-out: % plant inhibition
In short: as §1

[11] = test system: Morning Glory; assay: pre-emergence herbicide test; conditions: 0.25 lb/A; for inhibition at 280.212 g/ha: Ipomoea, pre-emergence, read-out: % plant inhibition
In short: as §1

[12] = test system: Rape; assay: pre-emergence herbicide test; conditions: 0.25 lb/A; for inhibition at 280.212 g/ha: pre-emergence, read-out: % plant inhibition
In short: as §1

[13] = test system: Seedling Johnsongrass; assay: pre-emergence herbicide test; conditions: 0.25 lb/A; for inhibition at 280.212 g/ha: Sorghum halepense, pre-emergence, read-out: % plant inhibition
In short: as §1

[14] = test system: Soybean; assay: pre-emergence herbicide test; conditions: 0.25 lb/A; for inhibition at 280.212 g/ha: Glycine max, pre-emergence, read-out: % plant inhibition
In short: as §1

[15] = test system: Velvetleaf; assay: pre-emergence herbicide test; conditions: 0.25 lb/A; for inhibition at 280.212 g/ha: Abutilon theophrasti, pre-emergence, read-out: % plant inhibition
In short: as §1

[16] = test system: Wheat; assay: pre-emergence herbicide test; conditions: 0.25 lb/A; for inhibition at 280.212 g/ha: Triticum aestivum, pre-emergence, read-out: % plant inhibition
In short: as §1

[17] = test system: Wild Oats; assay: pre-emergence herbicide test; conditions: 0.25 lb/A; for inhibition at 280.212 g/ha: Avena fatua, pre-emergence, read-out: % plant inhibition
In short: as §1

[18] = test system: Barnyardgrass; assay: post-emergence herbicide test; conditions: 0.25 lb/A; for inhibition at 280.212 g/ha: Echinochloa crus-galli, post-emergence, read-out: % plant inhibition
In short: (§2)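 Post-emergence activity is given as percent inhibition per species. Test compounds were atomizer-sprayed at 170.3 kPa, 1870 L/Ha carrier volume and roughly 0.4% v/v emulsifier onto greenhouse-raised plants aged two to three weeks, at the stated rates.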

[19] = test system: Bedstraw Catchweed; assay: post-emergence herbicide test; conditions: 0.25 lb/A; for inhibition at 280.212 g/ha: Galium aparine, post-emergence, read-out: % plant inhibition
In short: as §2

[20] = test system: Birdseye Speedwell; assay: post-emergence herbicide test; conditions: 0.25 lb/A; for inhibition at 280.212 g/ha: post-emergence, read-out: % plant inhibition
In short: as §2

[21] = test system: Blackgrass; assay: post-emergence herbicide test; conditions: 0.25 lb/A; for inhibition at 280.212 g/ha: Alopecurus myosuroides, post-emergence, read-out: % plant inhibition
In short: as §2

[22] = test system: Cocklebur; assay: post-emergence herbicide test; conditions: 0.25 lb/A; for inhibition at 280.212 g/ha: Xanthium strumarium, post-emergence, read-out: % plant inhibition
In short: as §2

[23] = test system: Common Chickweed; assay: post-emergence herbicide test; conditions: 0.25 lb/A; for inhibition at 280.212 g/ha: post-emergence, read-out: % plant inhibition
In short: as §2

[24] = test system: Corn; assay: post-emergence herbicide test; conditions: 0.25 lb/A; for inhibition at 280.212 g/ha: Zea mays, post-emergence, read-out: % plant inhibition
In short: as §2

[25] = test system: Downy Brome; assay: post-emergence herbicide test; conditions: 0.25 lb/A; for inhibition at 280.212 g/ha: Bromus tectorum, post-emergence, read-out: % plant inhibition
In short: as §2

[26] = test system: Giant Foxtail; assay: post-emergence herbicide test; conditions: 0.25 lb/A; for inhibition at 280.212 g/ha: Setaria faberi, post-emergence, read-out: % plant inhibition
In short: as §2

[27] = test system: Green Foxtail; assay: post-emergence herbicide test; conditions: 0.25 lb/A; for inhibition at 280.212 g/ha: Setaria viridis, post-emergence, read-out: % plant inhibition
In short: as §2

[28] = test system: Morning Glory; assay: post-emergence herbicide test; conditions: 0.25 lb/A; for inhibition at 280.212 g/ha: Ipomoea, post-emergence, read-out: % plant inhibition
In short: as §2

[29] = test system: Rape; assay: post-emergence herbicide test; conditions: 0.25 lb/A; for inhibition at 280.212 g/ha: post-emergence, read-out: % plant inhibition
In short: as §2

[30] = test system: Seedling Johnsongrass; assay: post-emergence herbicide test; conditions: 0.25 lb/A; for inhibition at 280.212 g/ha: Sorghum halepense, post-emergence, read-out: % plant inhibition
In short: as §2

[31] = test system: Soybean; assay: post-emergence herbicide test; conditions: 0.25 lb/A; for inhibition at 280.212 g/ha: Glycine max, post-emergence, read-out: % plant inhibition
In short: as §2

[32] = test system: Velvetleaf; assay: post-emergence herbicide test; conditions: 0.25 lb/A; for inhibition at 280.212 g/ha: Abutilon theophrasti, post-emergence, read-out: % plant inhibition
In short: as §2

[33] = test system: Wheat; assay: post-emergence herbicide test; conditions: 0.25 lb/A; for inhibition at 280.212 g/ha: Triticum aestivum, post-emergence, read-out: % plant inhibition
In short: as §2

[34] = test system: Wild Oats; assay: post-emergence herbicide test; conditions: 0.25 lb/A; for inhibition at 280.212 g/ha: Avena fatua, post-emergence, read-out: % plant inhibition
In short: as §2

Compound: CC(=O)CCCOC(=O)c1cc(-c2nn(C)c(C(F)(F)F)c2C)c(F)cc1Cl [Compound 53]
- inhibition at 280.212 g/ha [1]: 85%
- inhibition at 280.212 g/ha [2]: 50%
- inhibition at 280.212 g/ha [3]: 70%
- inhibition at 280.212 g/ha [4]: 15%
- inhibition at 280.212 g/ha [5]: 15%
- inhibition at 280.212 g/ha [6]: 40%
- inhibition at 280.212 g/ha [7]: 5%
- inhibition at 280.212 g/ha [8]: 15%
- inhibition at 280.212 g/ha [9]: 9%
- inhibition at 280.212 g/ha [10]: 100%
- inhibition at 280.212 g/ha [11]: 80%
- inhibition at 280.212 g/ha [12]: 5%
- inhibition at 280.212 g/ha [13]: 75%
- inhibition at 280.212 g/ha [14]: 0%
- inhibition at 280.212 g/ha [15]: 85%
- inhibition at 280.212 g/ha [16]: 0%
- inhibition at 280.212 g/ha [17]: 5%
- inhibition at 280.212 g/ha [18]: 70%
- inhibition at 280.212 g/ha [19]: 95%
- inhibition at 280.212 g/ha [20]: 95%
- inhibition at 280.212 g/ha [21]: 25%
- inhibition at 280.212 g/ha [22]: 100%
- inhibition at 280.212 g/ha [23]: 90%
- inhibition at 280.212 g/ha [24]: 7%
- inhibition at 280.212 g/ha [25]: 45%
- inhibition at 280.212 g/ha [26]: 75%
- inhibition at 280.212 g/ha [27]: 80%
- inhibition at 280.212 g/ha [28]: 99%
- inhibition at 280.212 g/ha [29]: 98%
- inhibition at 280.212 g/ha [30]: 75%
- inhibition at 280.212 g/ha [31]: 75%
- inhibition at 280.212 g/ha [32]: 100%
- inhibition at 280.212 g/ha [33]: 16%
- inhibition at 280.212 g/ha [34]: 40%

Compound: C=CCOC(=O)c1cc(-c2nn(C)c(C(F)(F)F)c2C)c(F)cc1Cl [Compound 54]
- inhibition at 280.212 g/ha [1]: 100%
- inhibition at 280.212 g/ha [2]: 80%
- inhibition at 280.212 g/ha [3]: 98%
- inhibition at 280.212 g/ha [4]: 35%
- inhibition at 280.212 g/ha [5]: 35%
- inhibition at 280.212 g/ha [6]: 90%
- inhibition at 280.212 g/ha [7]: 10%
- inhibition at 280.212 g/ha [8]: 75%
- inhibition at 280.212 g/ha [9]: 99%
- inhibition at 280.212 g/ha [10]: 100%
- inhibition at 280.212 g/ha [11]: 40%
- inhibition at 280.212 g/ha [12]: 0%
- inhibition at 280.212 g/ha [13]: 99%
- inhibition at 280.212 g/ha [14]: 5%
- inhibition at 280.212 g/ha [15]: 100%
- inhibition at 280.212 g/ha [16]: 5%
- inhibition at 280.212 g/ha [17]: 30%
- inhibition at 280.212 g/ha [18]: 95%
- inhibition at 280.212 g/ha [19]: 98%
- inhibition at 280.212 g/ha [20]: 100%
- inhibition at 280.212 g/ha [21]: 30%
- inhibition at 280.212 g/ha [22]: 99%
- inhibition at 280.212 g/ha [23]: 90%
- inhibition at 280.212 g/ha [24]: 35%
- inhibition at 280.212 g/ha [25]: 70%
- inhibition at 280.212 g/ha [26]: 90%
- inhibition at 280.212 g/ha [27]: 98%
- inhibition at 280.212 g/ha [28]: 80%
- inhibition at 280.212 g/ha [29]: 75%
- inhibition at 280.212 g/ha [30]: 90%
- inhibition at 280.212 g/ha [31]: 80%
- inhibition at 280.212 g/ha [32]: 100%
- inhibition at 280.212 g/ha [33]: 16%
- inhibition at 280.212 g/ha [34]: 80%

Compound: Cc1c(-c2cc(C(=O)OCCC(C)C)c(Cl)cc2F)nn(C)c1C(F)(F)F [Compound 55]
- % plant inhibition [1]: 30%
- % plant inhibition [2]: 85%
- % plant inhibition [3]: 100%
- % plant inhibition [4]: 60%
- % plant inhibition [5]: 30%
- % plant inhibition [6]: 75%
- % plant inhibition [7]: 0%
- % plant inhibition [8]: 55%
- % plant inhibition [9]: 100%
- % plant inhibition [10]: 100%
- % plant inhibition [11]: 10%
- % plant inhibition [12]: 5%
- % plant inhibition [13]: 95%
- % plant inhibition [14]: 0%
- % plant inhibition [15]: 85%
- % plant inhibition [16]: 0%
- % plant inhibition [17]: 35%
- % plant inhibition [18]: 45%
- % plant inhibition [19]: 75%
- % plant inhibition [20]: 95%
- % plant inhibition [21]: 20%
- % plant inhibition [22]: 90%
- % plant inhibition [23]: 70%
- % plant inhibition [24]: 20%
- % plant inhibition [25]: 20%
- % plant inhibition [26]: 35%
- % plant inhibition [27]: 65%
- % plant inhibition [28]: 85%
- % plant inhibition [29]: 15%
- % plant inhibition [30]: 70%
- % plant inhibition [31]: 20%
- % plant inhibition [32]: 99%
- % plant inhibition [33]: 10%
- % plant inhibition [34]: 30%
